Test results: ChEMBL document CHEMBL1133131, “Discovery of an orally bioavailable alkyl oxadiazole beta3 adrenergic receptor agonist” (Bioorg Med Chem Lett, 2000)
Activity calls are given as the source filed them. No cut-off for these calls is given here.

Legend:
[1] = target: Beta-2 adrenergic receptor (Homo sapiens, UniProt P07550); assay: Binding affinity towards Beta-2 adrenergic receptor prepared from CHO cells expressing the cloned human receptor in the presence of [125I]iodocyanopindolol; type: cell-based
[2] = target: Beta-1 adrenergic receptor (Homo sapiens, UniProt P08588); assay: Binding affinity towards cloned human Beta-1 adrenergic receptor prepared from CHO cells in the presence of [125I]iodocyanopindolol; type: cell-based
[3] = target: T1, Beta-3 adrenergic receptor (Homo sapiens, UniProt P13945); assay: Adenylyl cyclase activation as percent maximal isoproterenol stimulation of CHO cells expressing beta-3 receptor; type: functional, cell-based
Target sequence in this assay (P13945 whole entry, looked up): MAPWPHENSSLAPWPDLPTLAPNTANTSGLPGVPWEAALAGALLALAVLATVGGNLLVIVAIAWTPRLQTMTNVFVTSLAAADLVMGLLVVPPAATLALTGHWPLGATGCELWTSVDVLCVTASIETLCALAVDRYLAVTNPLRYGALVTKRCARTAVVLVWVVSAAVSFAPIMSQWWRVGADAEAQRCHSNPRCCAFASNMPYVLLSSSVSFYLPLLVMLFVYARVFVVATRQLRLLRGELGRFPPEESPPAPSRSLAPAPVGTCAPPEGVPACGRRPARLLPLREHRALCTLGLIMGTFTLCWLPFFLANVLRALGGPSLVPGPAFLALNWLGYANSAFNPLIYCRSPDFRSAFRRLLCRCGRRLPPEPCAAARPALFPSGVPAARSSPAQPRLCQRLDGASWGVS

[4] = target: T1, Beta-3 adrenergic receptor; assay: Agonist activity as increasedn cAMP production in Chinese hamster ovary (CHO)cells expressing human beta-3 adrenergic receptor; type: functional
Target sequence in this assay (P13945 whole entry): as the sequence (P13945 whole entry, looked up) above

[5] = Half life in rats; type: ADME, organism-based; conditions: rat, in vivo
[6] = system: Monkey; assay: The compound was tested for the percent increase in heart rate at the dose level of 10 mg/kg; No significant alteration; type: functional, organism-based; parameters: dose 10 mg/kg; conditions: Cercopithecidae
[7] = Half life in dog; type: ADME, organism-based, Canis lupus familiaris; conditions: in vivo
[8] = Oral bioavailability of intravenously administered compound (3 mg/kg) was tested in rats; type: ADME, organism-based; conditions: rat, in vivo, intravenous
[9] = system: Monkey; assay: The compound was evaluated for dose- dependent elevation of plasma glycerol in anesthetized rhesus; type: functional; conditions: Cercopithecidae, in Macaca mulatta
[10] = Oral bioavailability of perorally administered compound (10 mg/kg) was tested in dogs; type: ADME, organism-based, Canis lupus familiaris; conditions: dog, in vivo

Chain of Beta-2 adrenergic receptor (P07550 whole entry): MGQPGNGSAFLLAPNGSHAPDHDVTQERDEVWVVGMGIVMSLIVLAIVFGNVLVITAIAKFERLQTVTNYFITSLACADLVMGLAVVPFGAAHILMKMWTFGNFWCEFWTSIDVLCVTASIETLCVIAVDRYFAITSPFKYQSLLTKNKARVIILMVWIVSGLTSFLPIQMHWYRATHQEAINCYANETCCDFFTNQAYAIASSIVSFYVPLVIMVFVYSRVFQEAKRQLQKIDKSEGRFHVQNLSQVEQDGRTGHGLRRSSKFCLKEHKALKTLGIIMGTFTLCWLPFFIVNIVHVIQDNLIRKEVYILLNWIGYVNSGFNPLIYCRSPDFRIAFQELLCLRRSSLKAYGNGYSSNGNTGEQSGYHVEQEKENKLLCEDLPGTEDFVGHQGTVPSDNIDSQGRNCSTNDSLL
Chain of Beta-1 adrenergic receptor (P08588 whole entry): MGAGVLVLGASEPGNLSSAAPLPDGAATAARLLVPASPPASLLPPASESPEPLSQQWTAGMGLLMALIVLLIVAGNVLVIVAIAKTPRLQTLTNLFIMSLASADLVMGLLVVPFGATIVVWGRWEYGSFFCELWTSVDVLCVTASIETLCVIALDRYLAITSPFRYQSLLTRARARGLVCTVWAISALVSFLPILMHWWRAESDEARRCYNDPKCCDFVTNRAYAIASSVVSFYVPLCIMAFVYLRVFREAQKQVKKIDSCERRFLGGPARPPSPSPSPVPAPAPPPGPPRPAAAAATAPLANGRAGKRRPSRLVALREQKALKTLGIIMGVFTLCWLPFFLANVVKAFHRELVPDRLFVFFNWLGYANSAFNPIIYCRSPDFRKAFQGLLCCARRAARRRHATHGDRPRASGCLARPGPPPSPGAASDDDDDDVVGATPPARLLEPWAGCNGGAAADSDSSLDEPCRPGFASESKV

**Q.** Which IC50 [1] does the source give for `O=S(=O)(Nc1ccc(CCNC[C@H](O)c2cccnc2)cc1)c1ccc(-c2noc(CCCC3CCCCC3)n2)cc1` here?
**A.** 660 nM

**Q.** What about the IC50 [2] of the same molecule?
**A.** 1970 nM

**Q.** And the Activation [3]?
**A.** 62%

**Q.** And the EC50 [4]?
**A.** 19 nM

**Q.** With `CCC(O)CCc1nc(-c2ccc(S(=O)(=O)Nc3ccc(CCNC[C@H](O)c4cccnc4)cc3)cc2)no1` (stereo not given in full) as the molecule, how does the IC50 [1] read?
**A.** 24000 nM

**Q.** And the IC50 [2]?
**A.** 56000 nM

**Q.** What about the Activation [3] of the same molecule?
**A.** 53%

**Q.** What about the EC50 [4] of the same molecule?
**A.** 75 nM

**Q.** For `CCCCCCCCc1nc(-c2ccc(S(=O)(=O)Nc3ccc(CCNC[C@H](O)c4cccnc4)cc3)cc2)no1`, which IC50 [1] is on record?
**A.** 2500 nM

**Q.** And the IC50 [2]?
**A.** 9000 nM

**Q.** What about the Activation [3] of the same molecule?
**A.** 90%

**Q.** And the EC50 [4]?
**A.** 54 nM

**Q.** With `CCCCCCCc1nc(-c2ccc(S(=O)(=O)Nc3ccc(CCNC[C@H](O)c4cccnc4)cc3)cc2)no1` as the molecule, how does the IC50 [1] read?
**A.** 1410 nM

**Q.** And the IC50 [2]?
**A.** 2000 nM

**Q.** And the Activation [3]?
**A.** 86%

**Q.** What about the EC50 [4] of the same molecule?
**A.** 39 nM

**Q.** For `CCCc1nc(-c2ccc(S(=O)(=O)Nc3ccc(CCNC[C@H](O)c4cccnc4)cc3)cc2)no1`, which IC50 [1] is on record?
**A.** 8500 nM

**Q.** What about the IC50 [2] of the same molecule?
**A.** 8500 nM

**Q.** And the Activation [3]?
**A.** 70%

**Q.** What about the EC50 [4] of the same molecule?
**A.** 87 nM

**Q.** For `Cc1nc(-c2ccc(S(=O)(=O)Nc3ccc(CCNC[C@H](O)c4cccnc4)cc3)cc2)no1`, which IC50 [1] is on record?
**A.** 10000 nM

**Q.** And the IC50 [2]?
**A.** 10000 nM

**Q.** What about the Activation [3] of the same molecule?
**A.** 15%

**Q.** And the EC50 [4]?
**A.** > 100 nM

**Q.** What does the source list for `O=S(=O)(Nc1ccc(CCNC[C@H](O)c2cccnc2)cc1)c1ccc(-c2noc(CCOC3CCCC3)n2)cc1`?
**A.** IC50 [1]: 2670 nM; IC50 [2]: 8330 nM; Activation [3]: 70%; EC50 [4]: 13 nM

**Q.** For `CC(C)CCCc1nc(-c2ccc(S(=O)(=O)Nc3ccc(CCNC[C@H](O)c4cccnc4)cc3)cc2)no1`, which IC50 [1] is on record?
**A.** 1000 nM

**Q.** And the IC50 [2]?
**A.** 26000 nM

**Q.** And the Activation [3]?
**A.** 58%

**Q.** And the EC50 [4]?
**A.** 29 nM

**Q.** Which results are given for `CCCCc1nc(-c2ccc(S(=O)(=O)Nc3ccc(CCNC[C@H](O)c4cccnc4)cc3)cc2)no1`?
**A.** IC50 [1]: 6500 nM; IC50 [2]: 55000 nM; Activation [3]: 86%; EC50 [4]: 32 nM

**Q.** What does the source list for `CCC(=O)CCc1nc(-c2ccc(S(=O)(=O)Nc3ccc(CCNC[C@H](O)c4cccnc4)cc3)cc2)no1`?
**A.** IC50 [1]: 12000 nM; IC50 [2]: 25000 nM; Activation [3]: 75%; EC50 [4]: 66 nM

**Q.** Which IC50 [1] does the source give for `O=C(CCc1nc(-c2ccc(S(=O)(=O)Nc3ccc(CCNC[C@H](O)c4cccnc4)cc3)cc2)no1)N1CCCC1` here?
**A.** 51000 nM

**Q.** And the IC50 [2]?
**A.** 30000 nM

**Q.** What about the Activation [3] of the same molecule?
**A.** 49%

**Q.** And the EC50 [4]?
**A.** 120 nM

**Q.** Which IC50 [1] does the source give for `CCCCCc1nc(-c2ccc(S(=O)(=O)Nc3ccc(CCNC[C@H](O)c4cccnc4)cc3)cc2)no1` here?
**A.** 3000 nM

**Q.** And the half-life [5]?
**A.** 2.4 h

**Q.** And the IC50 [2]?
**A.** 5500 nM

**Q.** What about the Activation [3] of the same molecule?
**A.** 53%

**Q.** What about the Activity [6] of the same molecule?
**A.** inactive

**Q.** And the half-life [7]?
**A.** 3.6 h

**Q.** What about the bioavailability [8] of the same molecule?
**A.** 36%

**Q.** What about the EC50 [4] of the same molecule?
**A.** 23 nM

**Q.** What about the ED50 [9] of the same molecule?
**A.** 0.22 mg/kg

**Q.** What about the bioavailability [10] of the same molecule?
**A.** 62%

**Q.** What does the source list for `CC(=O)CCCc1nc(-c2ccc(S(=O)(=O)Nc3ccc(CCNC[C@H](O)c4cccnc4)cc3)cc2)no1`?
**A.** IC50 [1]: 57000 nM; IC50 [2]: 70000 nM; Activation [3]: 69%; EC50 [4]: 130 nM

**Q.** Which IC50 [1] does the source give for `CCCCCCc1nc(-c2ccc(S(=O)(=O)Nc3ccc(CCNC[C@H](O)c4cccnc4)cc3)cc2)no1` here?
**A.** 1000 nM

**Q.** And the IC50 [2]?
**A.** 2000 nM

**Q.** And the Activation [3]?
**A.** 79%

**Q.** What about the EC50 [4] of the same molecule?
**A.** 35 nM

**Q.** Which IC50 [1] does the source give for `O=S(=O)(Nc1ccc(CCNC[C@H](O)c2cccnc2)cc1)c1ccc(-c2noc(CCCC3CCCC3)n2)cc1` here?
**A.** 962 nM

**Q.** And the IC50 [2]?
**A.** 5500 nM

**Q.** And the Activation [3]?
**A.** 83%

**Q.** What about the EC50 [4] of the same molecule?
**A.** 15 nM

**Q.** Which results are given for `CC(O)CCCc1nc(-c2ccc(S(=O)(=O)Nc3ccc(CCNC[C@H](O)c4cccnc4)cc3)cc2)no1` (stereo not given in full)?
**A.** IC50 [1]: 44000 nM; IC50 [2]: 10000 nM; Activation [3]: 20%; EC50 [4]: > 100 nM
